In patent publication US10124001B2, “Stem cell modulation II” (University of Canberra, priority 2013, dated 2018):
“Also recorded” adds a separate entry of the source. Values belong to the compound of their own block, whether it stands above or below them.

Assays:
MCF-7 cells [1] = assay: FACS analysis of CD44high/CD24low CSC-like subpopulation in MCF-IM model; assay type: cell-based, human; conditions: for CSC formation (CD44high/CD24low, FACS): compound 27 1 uM for 24 hours pre-treatment, PMA 0.65 ng/ml 60 h; for CD44 high CD24 low CSC-like subpopulation (FACS): bisindolylmaleimide-I 100 nm and 1 μM or Go6976 1 μM prior to PMA 60 hrs
Description: (§1) The adherent human mammary adenocarcinoma MCF-7 and MDA-MB-231 cells were cultured in low glucose DMEM (Gibco) and both supplemented with 10% FCS, 2 mM L-glutamine and 0.1% PSN antibiotics. Cells were stimulated with 0.65 ng/ml of phorbol 12-myristate 13-acetate (PMA) (Sigma-Aldrich) or 20 ng/ml of TGF-β (R&D systems) for the times indicated. For Bisindolylmaleimide-I (Calbiochem) or PKC-θ peptide inhibitor (Calbiochem) studies, cells were pre-treated with 1 μM or 30 μM of inhibitor respectively for 1 h prior to stimulation in MCF-7 cells. In case of MDA-MB-231, cells were treated with 4 μM or 30 μM Bisindolylmaleimide-I or PKC-θ peptide inhibitor respectively.
(§2) To separate CSC from non-CSC (NCSC), florescence activated cell sorting (FACS) was performed on single-cell suspensions that were stained with anti-CD44-APC (559942, BD Biosciences) and anti-CD24-PE antibodies (555428, BD Biosciences) along with Hoechst 33258 to monitor cell viability. As used throughout this work, CSC are defined by minority CD44^high/CD24^low, whereas NCSC are defined by rest of the cell populations.

MCF-7 cells [2] = assay: TaqMan real time PCR transcript analysis of inducible EMT/CSC genes in MCF-IM model; assay type: cell-based, human; conditions: for transcription of key inducible EMT/CSC genes (laminin-5, uPAR, CD44): 1 hour prior to PMA 60 hrs
Excerpt: (§3) Human TaqMan™ primer sets used were: CD44, Hs00153304, CD24, Hs00273561, uPAR, Hs00182181, Laminin-5, Hs00194333, Zeb-1, Hs00611018, Fibronectin, Hs00415006 and Integrin-β, Hs00168458 (Applied Biosystems). Primers used for SYBR Green real-time PGR are: Zeb1 (sense: 5′-[…]-3′ and antisense: 5′-[…]-3′) and Cyclophilin A (sense: 5′-[…]-3′ and antisense: 5′-CACCACATGCTTGCCATCC-3′).
(§4) Total RNA was extracted using TRIzol® Reagent (Invitrogen) and first strand cDNA was synthesized using the Superscript™ III RNase H-reverse transcriptase kit (Invitrogen). TaqMan® Gene Expression Assays and SYBR Green real-time PCR were performed as previously described (Sutcliffe et al., 2009, Molecular and Cellular Biology, 29: 1972-86). MicroRNA assays were performed with the TaqMan® MicroRNA Reverse Transcription Kit (ABI 4366596) and the data were normalized to RNU6B as previously described in Sutcliffe et al. ([…], Molecular Cell 41:704-719).

PKC-θ [3] = target: PKC-θ (Homo sapiens, UniProt Q04759); assay: PKC ELISA-based kinase assay, in-vitro PKC-θ activity; assay type: biochemical; conditions: FIG. 6A
Sequence of PKC-θ (Homo sapiens, UniProt Q04759) (Q04759 whole entry): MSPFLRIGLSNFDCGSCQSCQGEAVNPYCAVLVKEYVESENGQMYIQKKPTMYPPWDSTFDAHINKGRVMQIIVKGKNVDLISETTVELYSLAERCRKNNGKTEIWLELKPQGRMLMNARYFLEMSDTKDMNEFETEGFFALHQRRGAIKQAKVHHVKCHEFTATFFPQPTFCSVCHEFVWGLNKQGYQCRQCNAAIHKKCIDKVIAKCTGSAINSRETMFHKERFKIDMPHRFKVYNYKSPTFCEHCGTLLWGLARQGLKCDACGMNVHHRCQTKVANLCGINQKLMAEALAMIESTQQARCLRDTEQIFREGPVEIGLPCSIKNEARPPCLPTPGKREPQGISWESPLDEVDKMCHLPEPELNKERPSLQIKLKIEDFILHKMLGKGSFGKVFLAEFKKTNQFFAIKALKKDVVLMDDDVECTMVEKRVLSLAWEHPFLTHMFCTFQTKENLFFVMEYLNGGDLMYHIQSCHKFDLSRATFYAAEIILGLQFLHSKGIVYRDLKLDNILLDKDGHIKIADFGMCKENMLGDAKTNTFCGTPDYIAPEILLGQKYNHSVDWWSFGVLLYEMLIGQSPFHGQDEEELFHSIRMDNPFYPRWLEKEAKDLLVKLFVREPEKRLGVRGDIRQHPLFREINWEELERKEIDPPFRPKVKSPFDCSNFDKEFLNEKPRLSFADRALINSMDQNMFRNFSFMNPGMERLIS
Description: (§5) PKC activity assay were purchased from Enzo Life Sciences (DI-EKS-420A) and assays were performed according to the manufacture's protocol as previously described (Sutcliffe, 2012, supra).
(§6) PKC-θ and PKC-β activity assays (Enzo Life Sciences; DI-EKS-420A) were performed according to the manufacturer's protocol and as previously described (Sutcliffe et. Al., 2012. Chromatinized Protein Kinase C-theta: Can It Escape the Clutches of NF-kappaB? Front Immunol 3:260).

PKC = PKC ELISA-based kinase assay of nuclear or cytoplasmic extract from MCF-IM; assay type: cell-based, human; conditions: assays without specific immunoprecipitates, global PKC activity (FIG. 6B)
Description: as §5, §6

NF-κB p50 and p65 = assay: NF-κB activity assay (TransAM NF-κB Family kit), MCF-IM nuclear extracts; assay type: cell-based, human; conditions: MCF-IM treated with C27 vs vehicle
Description: TransAM NF-κB Family kit was used for NF-κB activity assays (43296, Active Motif). Assays were performed according to the manufacturer's guidelines. 5 μg protein from MDA-MB231 or MCF-IM derived whole cell, nuclear and cytoplasmic extracts were used in triplicate for the assays. Raji nuclear extract was used as a positive control Wild-type and mutated consensus oligonucleotides were also used as a negative and positive controls respectively.

NF-κB p65 = assay: Immunoblotting of MCF-IM nuclear and cytoplasmic fractions for NF-κB p65; assay type: cell-based, human
Description: Immunoblot analysis was performed according to the manufacturer's protocol and as previously described (Rao et al., 2003 c-Rel is required for chromatin remodeling across the IL-2 gene promoter. Journal of immunology 170:3724-3731.) with anti-PKC-θ (sc-212, SantaCruz), anti-p65 (ab7970, Abcam), anti-p65 phospho (ser-468) (3039, Cell Signaling), anti-p65 phospho (ser-536) (3031, Cell Signaling) and RNA Pol II(c-21) (ab817, Abcam) antibodies.

MCF-7 cells [4] = assay: EMT morphology by phase contrast microscopy in MCF-IM model; assay type: cell-based, human
Description: as §1, with “Cells were stimulated with 0.65 ng/ml of phorbol 12-myristate 13-acetate (PMA) (Sigma-Aldrich) or 20 ng/ml of TGF-β (R&D systems) for the times indicated.” left out
(§7) phase contrast microscopy was performed where cells were viewed at ×4 magnification (wound healing assay) or ×10 magnification (EMT) using an Olympus fluorescence 1X^71 microscope (Olympus) and images were captured using DPController software (2002 Olympus Optical Co. LTD) and analysed using Photoshop CS3 (Adobe Systems Inc.). Scans were taken with a 10 μm scale bar.

MCF-7 cells [5] = assay: Mammosphere assay in MCF-IM model; assay type: cell-based, human; conditions: 1 μM for 1 hr prior to PMA stimulation, 6 days; mammospheres larger than 60 μm counted
Description: Mammosphere culture media components were purchased from StemCell Technologies and mammosphere assays were performed as recommended by the manufacturer's guidelines. Briefly, 40,000 cells/2 ml cell dilutions were then prepared and 2 ml of cells were seeded in the 6 well-ultralow adherent, flat bottom plates (Costar). Mammospheres larger than 60 μm were counted per well on day 7 and pictures were taken.

MDA-MB 231 cells [6] = assay: EMT morphology by phase contrast microscopy in basal/metastatic model; assay type: cell-based, human; conditions: Bisindolylmaleimide 4 μM
Description: as §1, §7

MDA-MB 231 cells [7] = assay: FACS analysis of CD44high/CD24low CSC-like subpopulation in basal/metastatic model; assay type: cell-based, human; conditions: bisindolylmaleimide-I 4 μM
Description: as §1, §2

MDA-MB 231 cells [8] = assay: TaqMan real time PCR transcript analysis of EMT/CSC genes in basal/metastatic model; assay type: cell-based, human; conditions: bisindolylmaleimide-I 4 μM
Excerpt: as §3, §4

PKC-θ [9] = assay: ChIP assay of PKC-θ chromatin association at CSC inducible gene promoters in MCF-IM model; assay type: cell-based, human
Description: ChIP buffers were purchased from Upstate Biotechnology and ChIP assays were performed according to the protocol supplied by Upstate Biotechnology as previously described (Sutcliffe et al., 2011, Molecular Cell. 41:704-719 ). Antibody used were: Anti-PKC-θ (Santa Cruz, sc-212), Anti-PKC-θ Phospho s695 (Abcam, ab76568) and Pol II c-21 (Abcam, ab817), Promoter primers used for RT-PCR were human CD44 (Fwd: […], Rev: […]), uPAR(Fwd: […], Rev: […]) and IL-6 (Fwd: […], Rev: […]). Sequential ChIP assays performed as described previously by Sutcliffe et al., (2011, Molecular Cell. 41: 704-719).

PKC-θ activity, in-vitro PKC-θ activity assay (PKC-θ [3]): abrogated PKC-θ activity | PKC-θ activity in nuclear and cellular extracts from MCF-IM pre-treated with C27 (PKC): abrogated PKC-θ activity
SMILES: CC(C)[C@@](C)(O)[C@@H]1CN(c2nc(-c3n[nH]c4ncccc34)c(F)cc2Cl)CCN1 [Compound C27]
CSC formation (CD44high/CD24low, FACS) (MCF-7 cells [1]): abolished CSC formation | CSC formation (CD44high/CD24low, FACS) (MCF-7 cells [1]; listed as compound 27): prevents CSC formation | transcription of CSC inducible genes (MCF-7 cells [2]; C27 treatment, FIG. 6D): abolished | p50 nuclear activity (NF-κB p50 and p65): significantly decreased | p65 nuclear activity (NF-κB p50 and p65): significantly decreased | p65 in the cytoplasmic fraction (NF-κB p65; C27 treated epithelial and mesenchymal cells, cytoplasmic fraction): global accumulation of p65 was observed in the cytoplasmic fraction | p65 phosphorylation at serine 468 in nuclear extracts (NF-κB p65; MCF-IM nuclear extracts, with or without compound 27): this phosphorylation was inhibited | p65 abundance in the nuclei (pan-p65 antibody) (NF-κB p65; epithelial and mesenchymal state, nuclear fraction): inhibited p65 abundance in the nuclei

SMILES: Cn1c2ccccc2c2c3c(c4c5ccccc5n(CCC#N)c4c21)CNC3=O [Go6976]
PMA-induced EMT-like morphological changes (MCF-7 cells [4]; pre-incubation with Go6976): did not prevent PMA-induced EMT-like morphological changes | CD44 high CD24 low CSC-like subpopulation (FACS) (MCF-7 cells [1]): but not Go 6976 inhibits | PMA-induced CSC formation (MCF-7 cells [1]; pre-incubation with Go6976): did not prevent | transcription of key inducible EMT/CSC genes (laminin-5, uPAR, CD44) (MCF-7 cells [2]; 1 μM): failed to inhibit transcription of key inducible EMT/CSC genes

SMILES: CN(C)CCCn1cc(C2=C(c3c[nH]c4ccccc34)C(=O)NC2=O)c2ccccc21 [bisindolylmaleimide-I, Bisindolylmaleimide-I]
EMT (morphology) (MCF-7 cells [4]; bisindolylmaleimide 1 μM, 1 hr pre-treatment before PMA stimulation 60 hrs): inhibits EMT | CD44 high CD24 low CSC-like subpopulation (FACS) (MCF-7 cells [1]): only very high concentration of bisindolylmaleimide-I | mammosphere formation (MCF-7 cells [5]): reduce mammosphere formation | transcription of key inducible EMT/CSC genes (laminin-5, uPAR, CD44) (MCF-7 cells [2]; 100 nM): cannot inhibit transcription of key inducible EMT/CSC genes | transcription of key inducible EMT/CSC genes (laminin-5, uPAR, CD44) (MCF-7 cells [2]; 1 μM): inhibits transcription of key inducible EMT/CSC genes | EMT (morphology) (MDA-MB 231 cells [6]): inhibits EMT | CD44 high CD24 low CSC-like subpopulation (FACS) (MDA-MB 231 cells [7]): inhibits CD44 high CD24 low-CSC-like subpopulation | transcription of key inducible EMT/CSC genes (laminin-5, uPAR, CD44) (MDA-MB 231 cells [8]): inhibits transcription of key inducible EMT/CSC genes | binding of PKC-θ on the CD44 gene promoter (ChIP) (PKC-θ [9]; as worded in Example 4): reduction of binding of PKC-θ on the CD44 gene promoter | PKC-θ chromatin association across the uPAR promoter (ChIP) (PKC-θ [9]; bisindolylmaleimide-I 1 μM 1 hr pre-incubation, or siRNA 48 hrs, then PMA 60 hrs): reduces its chromatin association across the uPAR promoter

SMILES: CCCCCCCCCCCCCC(=O)O[C@@H]1[C@@H](C)[C@@]2(O)[C@@H](C=C(CO)C[C@]3(O)C(=O)C(C)=C[C@@H]23)[C@@H]2C(C)(C)[C@]12OC(C)=O [PMA, Phorbol 12-Myristate 13-Acetate]
EMT (percentage of cells undergoing EMT, morphology) (MCF-7 cells [4]; PMA 20 ng/mL for 60 hr, compared with TNF-α, EGF, IL-6, TGF-β): results in maximal EMT; also recorded: caused highest EMT changes | generation of CD44high/CD24low CSC like cells (MCF-7 cells [1]; induction of PKC pathway by PMA 0.65 ng/mL 60 hr): results in the generation of CD44^high/CD24^low-CSC like cells
